The supplement of paper PMC10307832

Legend:
Experiment in all cases: relative viability (nuclei count vs DMSO), 5 days (fraction); higher = more cells survive
Bleomycin + Olaparib = compound: CC1=C(N=C(N=C1N)[C@H](CC(=O)N)NC[C@@H](C(=O)N)N)C(=O)N[C@@H]([C@H](C2=CN=CN2)OC3C(C(C(C(O3)CO)O)O)OC4C(C(C(C(O4)CO)O)OC(=O)N)O)C(=O)N[C@H](C)[C@H]([C@H](C)C(=O)N[C@@H]([C@@H](C)O)C(=O)NCCC5=NC(=CS5)C6=NC(=CS6)C(=O)NCCC[S+](C)C)O [Bleomycin] + O=C(c1cc(Cc2n[nH]c(=O)c3ccccc23)ccc1F)N1CCN(C(=O)C2CC2)CC1 [Olaparib] (partner 8 µM); conditions: main component drawn
Summary of the method: (§1)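 Dosing by pin tool came one day after lung cancer cell lines were seeded in 1536-well plates, using either one drug or a fixed anchor-drug dose plus five library-drug doses (not always all listed) in √10 steps. After 5 days, nuclei were counted on 4× images. Relative viability is treated-well nuclei count divided by vehicle-well nuclei count, and values are medians of duplicate plates.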

Bleomycin + Luminespib = compound: CC1=C(N=C(N=C1N)[C@H](CC(=O)N)NC[C@@H](C(=O)N)N)C(=O)N[C@@H]([C@H](C2=CN=CN2)OC3C(C(C(C(O3)CO)O)O)OC4C(C(C(C(O4)CO)O)OC(=O)N)O)C(=O)N[C@H](C)[C@H]([C@H](C)C(=O)N[C@@H]([C@@H](C)O)C(=O)NCCC5=NC(=CS5)C6=NC(=CS6)C(=O)NCCC[S+](C)C)O [Bleomycin] + CCNC(=O)c1noc(-c2cc(C(C)C)c(O)cc2O)c1-c1ccc(CN2CCOCC2)cc1 [Luminespib] (partner 0.01 µM); conditions: main component drawn
Summary of the method: as §1

Bleomycin + Bortezomib = compound: CC1=C(N=C(N=C1N)[C@H](CC(=O)N)NC[C@@H](C(=O)N)N)C(=O)N[C@@H]([C@H](C2=CN=CN2)OC3C(C(C(C(O3)CO)O)O)OC4C(C(C(C(O4)CO)O)OC(=O)N)O)C(=O)N[C@H](C)[C@H]([C@H](C)C(=O)N[C@@H]([C@@H](C)O)C(=O)NCCC5=NC(=CS5)C6=NC(=CS6)C(=O)NCCC[S+](C)C)O [Bleomycin] + CC(C)C[C@H](NC(=O)[C@H](Cc1ccccc1)NC(=O)c1cnccn1)B(O)O [Bortezomib] (partner 0.002 µM); conditions: main component drawn
Summary of the method: as §1

Etoposide + Crizotinib = compound: COc1cc([C@@H]2c3cc4c(cc3[C@@H](O[C@@H]3O[C@@H]5CO[C@@H](C)O[C@H]5[C@H](O)[C@H]3O)[C@H]3COC(=O)[C@H]23)OCO4)cc(OC)c1O [Etoposide] + C[C@@H](Oc1cc(-c2cnn(C3CCNCC3)c2)cnc1N)c1c(Cl)ccc(F)c1Cl [Crizotinib] (partner 1 µM)
Summary of the method: as §1

Work on UMC-11 yielded a relative viability (Bleomycin + Olaparib; first compound 0.01 µM) of 0.36, a relative viability (Bleomycin + Olaparib; first compound 0.03162 µM) of 0.342 and a relative viability (Bleomycin + Olaparib; first compound 0.1 µM) of 0.371. The relative viability (Bleomycin + Olaparib; first compound 0.3162 µM) was 0.393, the relative viability (Bleomycin + Olaparib; first compound 1 µM) was 0.271 and the relative viability (Bleomycin + Luminespib; first compound 0.01 µM) was 0.914. It also gave a relative viability (Bleomycin + Luminespib; first compound 0.03162 µM) of 1.05, a relative viability (Bleomycin + Luminespib; first compound 0.1 µM) of 0.893 and a relative viability (Bleomycin + Luminespib; first compound 0.3162 µM) of 0.65. The relative viability (Bleomycin + Luminespib; first compound 1 µM) was 0.539, the relative viability (Bleomycin + Bortezomib; first compound 0.01 µM) was 0.626 and the relative viability (Bleomycin + Bortezomib; first compound 0.03162 µM) was 0.587. For the same cell line, the relative viability (Bleomycin + Bortezomib; first compound 0.1 µM) was 0.576, the relative viability (Bleomycin + Bortezomib; first compound 0.3162 µM) was 0.477 and the relative viability (Bleomycin + Bortezomib; first compound 1 µM) was 0.304. For the same cell line, the relative viability (Etoposide + Crizotinib; first compound 0.01 µM) was 0.703, the relative viability (Etoposide + Crizotinib; first compound 0.03162 µM) was 0.573 and the relative viability (Etoposide + Crizotinib; first compound 0.3162 µM) was 0.241. The relative viability (Etoposide + Crizotinib; first compound 1 µM) was 0.146.
